Reference: ChEMBL document CHEMBL1201862, “PubChem BioAssay data set” (2004)
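Following 48 hours of exposure in 96-well plates, responses at five concentrations were used to interpolate endpoints linearly. GI50: concentration for 50% inhibition of growth.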 Active and inactive are the calls of the source. Cut-off read from the data, not from the text of the source: active = GI50 up to about 1.1 µM and inactive = higher.

How the values were obtained:
Experiment in all cases: NCI anticancer screen, dose series, 48 h
BT-549 = system: BT-549
NCI-H23 = system: NCI-H23
CCRF-CEM = system: CCRF-CEM
COLO 205 = system: COLO 205
SF-539 = system: SF-539
SNB-75 = system: SNB-75
SK-MEL-28 = system: SK-MEL-28
OVCAR-5 = system: OVCAR-5
SW-620 = system: SW-620
HCT-15 = system: HCT-15
K562 = system: K562
TK-10 = system: TK-10
U-251 = system: U-251
A549 = system: A549
HCC 2998 = system: HCC 2998
UACC-257 = system: UACC-257
SF-295 = system: SF-295
SF-268 = system: SF-268
UO-31 = system: UO-31
786-0 = system: 786-0
SK-MEL-2 = system: SK-MEL-2
SR = system: SR
HT-29 = system: HT-29
HCT-116 = system: HCT-116
MOLT-4 = system: MOLT-4
OVCAR-3 = system: OVCAR-3
HL-60 = system: HL-60
Hs-578T = system: Hs-578T
MCF7 = system: MCF7
OVCAR-4 = system: OVCAR-4
M14 = system: M14
MDA-N = system: MDA-N
ACHN = system: ACHN
KM12 = system: KM12
SK-MEL-5 = system: SK-MEL-5
T47D = system: T47D
NCI/ADR-RES = system: NCI/ADR-RES
MDA-MB-435 = system: MDA-MB-435
RXF 393 = system: RXF 393
RPMI-8226 = system: RPMI-8226
CAKI-1 = system: CAKI-1
LOX IMVI = system: LOX IMVI
SK-OV-3 = system: SK-OV-3
HOP-92 = system: HOP-92
NCI-H460 = system: NCI-H460
EKVX = system: EKVX
UACC-62 = system: UACC-62
PC-3 = system: PC-3
MDA-MB-231 = system: MDA-MB-231
A498 = system: A498
SN12C = system: SN12C
IGROV-1 = system: IGROV-1
DU-145 = system: DU-145
HOP-62 = system: HOP-62
Malme-3M = system: Malme-3M
NCI-H522 = system: NCI-H522
NCI-H226 = system: NCI-H226
SNB-19 = system: SNB-19
OVCAR-8 = system: OVCAR-8

Structure (SMILES): c1csc(-c2cc(-c3ccsc3)cs2)c1
- GI50 (BT-549): > 100 µM (inactive)
- GI50 (NCI-H23): 14.9 µM (inactive)
- GI50 (CCRF-CEM): > 100 µM (inactive)
- GI50 (COLO 205): > 100 µM (inactive)
- GI50 (SF-539): 35.4 µM (inactive)
- GI50 (SNB-75): > 100 µM (inactive)
- GI50 (SK-MEL-28): > 100 µM (inactive)
- GI50 (OVCAR-5): 63.1 µM (inactive)
- GI50 (SW-620): > 100 µM (inactive)
- GI50 (HCT-15): > 100 µM
- GI50 (K562): > 100 µM (inactive)
- GI50 (TK-10): > 100 µM (inactive)
- GI50 (U-251): > 100 µM (inactive)
- GI50 (A549): 44.8 µM (inactive)
- GI50 (HCC 2998): > 100 µM (inactive)
- GI50 (UACC-257): > 100 µM (inactive)
- GI50 (SF-295): 32.1 µM (inactive)
- GI50 (SF-268): > 100 µM (inactive)
- GI50 (UO-31): 78.2 µM (inactive)
- GI50 (786-0): 44.2 µM (inactive)
- GI50 (SK-MEL-2): 98.6 µM (inactive)
- GI50 (SR): 14.4 µM (inactive)
- GI50 (HT-29): 41.4 µM (inactive)
- GI50 (HCT-116): > 100 µM (inactive)
- GI50 (MOLT-4): 87.1 µM (inactive)
- GI50 (OVCAR-3): 27.2 µM (inactive)
- GI50 (HL-60): 74.1 µM (inactive)
- GI50 (Hs-578T): 21 µM (inactive)
- GI50 (MCF7): 34.8 µM (inactive)
- GI50 (OVCAR-4): 40.6 µM (inactive)
- GI50 (M14): > 100 µM (inactive)
- GI50 (MDA-N): > 100 µM (inactive)
- GI50 (ACHN): > 100 µM (inactive)
- GI50 (KM12): > 100 µM (inactive)
- GI50 (SK-MEL-5): > 100 µM (inactive)
- GI50 (T47D): > 100 µM (inactive)
- GI50 (NCI/ADR-RES): > 100 µM (inactive)
- GI50 (MDA-MB-435): > 100 µM (inactive)
- GI50 (RXF 393): 20.6 µM (inactive)
- GI50 (RPMI-8226): > 100 µM (inactive)
- GI50 (CAKI-1): > 100 µM (inactive)
- GI50 (LOX IMVI): > 100 µM (inactive)
- GI50 (SK-OV-3): 33.8 µM (inactive)
- GI50 (HOP-92): > 100 µM (inactive)
- GI50 (NCI-H460): > 100 µM (inactive)
- GI50 (EKVX): 52.7 µM (inactive)
- GI50 (UACC-62): > 100 µM (inactive)
- GI50 (PC-3): > 100 µM (inactive)
- GI50 (MDA-MB-231): > 100 µM (inactive)
- GI50 (A498): > 100 µM (inactive)
- GI50 (SN12C): > 100 µM (inactive)
- GI50 (IGROV-1): 45.2 µM (inactive)
- GI50 (DU-145): > 100 µM (inactive)
- GI50 (HOP-62): 29.9 µM (inactive)

Structure (SMILES): CC(C)[S+]1C2=C(CC(C)(C)CC2=O)[N-]c2ccccc21 (stereo not drawn)
- GI50 (BT-549): > 100 µM (inactive)
- GI50 (NCI-H23): > 100 µM (inactive)
- GI50 (CCRF-CEM): > 100 µM (inactive)
- GI50 (COLO 205): > 100 µM (inactive)
- GI50 (Malme-3M): > 100 µM (inactive)
- GI50 (SNB-75): > 100 µM (inactive)
- GI50 (SK-MEL-28): > 100 µM (inactive)
- GI50 (OVCAR-5): > 100 µM (inactive)
- GI50 (SW-620): > 100 µM (inactive)
- GI50 (HCT-15): > 100 µM
- GI50 (K562): > 100 µM (inactive)
- GI50 (TK-10): > 100 µM (inactive)
- GI50 (NCI-H522): > 100 µM (inactive)
- GI50 (U-251): > 100 µM (inactive)
- GI50 (A549): > 100 µM (inactive)
- GI50 (HCC 2998): > 100 µM (inactive)
- GI50 (NCI-H226): > 100 µM (inactive)
- GI50 (SNB-19): > 100 µM (inactive)
- GI50 (UACC-257): > 100 µM (inactive)
- GI50 (SF-295): > 100 µM (inactive)
- GI50 (SF-268): > 100 µM (inactive)
- GI50 (UO-31): > 100 µM (inactive)
- GI50 (OVCAR-8): > 100 µM (inactive)
- GI50 (786-0): > 100 µM (inactive)
- GI50 (SK-MEL-2): > 100 µM (inactive)
- GI50 (SR): > 100 µM (inactive)
- GI50 (HT-29): > 100 µM (inactive)
- GI50 (HCT-116): > 100 µM (inactive)
- GI50 (MOLT-4): > 100 µM (inactive)
- GI50 (OVCAR-3): > 100 µM (inactive)
- GI50 (Hs-578T): > 100 µM (inactive)
- GI50 (MCF7): > 100 µM (inactive)
- GI50 (OVCAR-4): > 100 µM (inactive)
- GI50 (M14): > 100 µM (inactive)
- GI50 (MDA-N): > 100 µM (inactive)
- GI50 (ACHN): > 100 µM (inactive)
- GI50 (KM12): > 100 µM (inactive)
- GI50 (SK-MEL-5): > 100 µM (inactive)
- GI50 (T47D): > 100 µM (inactive)
- GI50 (NCI/ADR-RES): > 100 µM (inactive)
- GI50 (MDA-MB-435): > 100 µM (inactive)
- GI50 (RXF 393): > 100 µM (inactive)
- GI50 (RPMI-8226): > 100 µM (inactive)
- GI50 (CAKI-1): > 100 µM (inactive)
- GI50 (LOX IMVI): > 100 µM (inactive)
- GI50 (SK-OV-3): > 100 µM (inactive)
- GI50 (HOP-92): > 100 µM (inactive)
- GI50 (NCI-H460): > 100 µM (inactive)
- GI50 (EKVX): > 100 µM (inactive)
- GI50 (UACC-62): > 100 µM (inactive)
- GI50 (PC-3): > 100 µM (inactive)
- GI50 (MDA-MB-231): > 100 µM (inactive)
- GI50 (A498): > 100 µM (inactive)
- GI50 (SN12C): > 100 µM (inactive)
- GI50 (IGROV-1): > 100 µM (inactive)
- GI50 (DU-145): > 100 µM (inactive)
- GI50 (HOP-62): > 100 µM (inactive)

Structure (SMILES): COc1cc2ccc(C(C)NCC#N)cc2cc1OC (stereo not drawn)
- GI50 (BT-549): > 100 µM (inactive)
- GI50 (COLO 205): > 100 µM (inactive)
- GI50 (Malme-3M): > 100 µM (inactive)
- GI50 (SF-539): > 100 µM (inactive)
- GI50 (SNB-75): > 100 µM (inactive)
- GI50 (SK-MEL-28): > 100 µM (inactive)
- GI50 (OVCAR-5): > 100 µM (inactive)
- GI50 (SW-620): > 100 µM (inactive)
- GI50 (HCT-15): > 100 µM
- GI50 (K562): > 100 µM (inactive)
- GI50 (TK-10): > 100 µM (inactive)
- GI50 (NCI-H522): > 100 µM (inactive)
- GI50 (U-251): > 100 µM (inactive)
- GI50 (A549): > 100 µM (inactive)
- GI50 (HCC 2998): 36.4 µM (inactive)
- GI50 (NCI-H226): > 100 µM (inactive)
- GI50 (SNB-19): > 100 µM (inactive)
- GI50 (UACC-257): > 100 µM (inactive)
- GI50 (SF-295): > 100 µM (inactive)
- GI50 (SF-268): > 100 µM (inactive)
- GI50 (UO-31): > 100 µM (inactive)
- GI50 (OVCAR-8): > 100 µM (inactive)
- GI50 (786-0): > 100 µM (inactive)
- GI50 (SK-MEL-2): > 100 µM (inactive)
- GI50 (SR): 28.1 µM (inactive)
- GI50 (HT-29): 75.2 µM (inactive)
- GI50 (HCT-116): > 100 µM (inactive)
- GI50 (MOLT-4): 28.8 µM (inactive)
- GI50 (OVCAR-3): > 100 µM (inactive)
- GI50 (HL-60): 46.5 µM (inactive)
- GI50 (Hs-578T): > 100 µM (inactive)
- GI50 (MCF7): > 100 µM (inactive)
- GI50 (OVCAR-4): > 100 µM (inactive)
- GI50 (M14): > 100 µM (inactive)
- GI50 (MDA-N): > 100 µM (inactive)
- GI50 (ACHN): > 100 µM (inactive)
- GI50 (KM12): > 100 µM (inactive)
- GI50 (SK-MEL-5): > 100 µM (inactive)
- GI50 (T47D): > 100 µM (inactive)
- GI50 (NCI/ADR-RES): > 100 µM (inactive)
- GI50 (MDA-MB-435): > 100 µM (inactive)
- GI50 (RXF 393): > 100 µM (inactive)
- GI50 (RPMI-8226): > 100 µM (inactive)
- GI50 (CAKI-1): > 100 µM (inactive)
- GI50 (LOX IMVI): > 100 µM (inactive)
- GI50 (SK-OV-3): > 100 µM (inactive)
- GI50 (HOP-92): > 100 µM (inactive)
- GI50 (NCI-H460): > 100 µM (inactive)
- GI50 (EKVX): > 100 µM (inactive)
- GI50 (UACC-62): > 100 µM (inactive)
- GI50 (PC-3): > 100 µM (inactive)
- GI50 (MDA-MB-231): > 100 µM (inactive)
- GI50 (A498): > 100 µM (inactive)
- GI50 (SN12C): > 100 µM (inactive)
- GI50 (IGROV-1): > 100 µM (inactive)
- GI50 (DU-145): > 100 µM (inactive)
- GI50 (HOP-62): > 100 µM (inactive)
